Data published in patent US12371464B2, “Polypeptides and uses thereof” (MEDIMMUNE LIMITED, priority 2020, dated 2025).
Numbered stars: 1 amine (or outer) side, 2 acyl side, 3 side chain; on linkers, the order of the positions; unused ones are H or OH. Bridge positions count the residues as written; N and C are the ends. Square brackets hold non-standard residues; d marks the D form. Side chains are listed from the residue outwards. Ends that are not written are not given here. Peptide text beside a SMILES is read from it. * marks the point of attachment. C20 diacid = O=C(O)CCCCCCCCCCCCCCCCCCC(=O)*; C18 diacid = O=C(O)CCCCCCCCCCCCCCCCC(=O)*; γGlu = O=C(O)[C@H](CCC(=O)[*:2])N[*:1]; αMeF = C[C@](N)(Cc1ccccc1)C(=O)O; Aib = CC(C)(N)C(=O)O

What was measured:
[1] = target: T1, human calcitonin receptor (hCTR) (Homo sapiens, UniProt P30988); assay: cAMP production in 1321N1 cells with stable recombinant expression of human calcitonin receptor (hCTR); assay type: cell-based; conditions: 1321N1 cells expressing human calcitonin receptor
T1 construct: expressed in transfected cells
T1 sequence (P30988 25-474): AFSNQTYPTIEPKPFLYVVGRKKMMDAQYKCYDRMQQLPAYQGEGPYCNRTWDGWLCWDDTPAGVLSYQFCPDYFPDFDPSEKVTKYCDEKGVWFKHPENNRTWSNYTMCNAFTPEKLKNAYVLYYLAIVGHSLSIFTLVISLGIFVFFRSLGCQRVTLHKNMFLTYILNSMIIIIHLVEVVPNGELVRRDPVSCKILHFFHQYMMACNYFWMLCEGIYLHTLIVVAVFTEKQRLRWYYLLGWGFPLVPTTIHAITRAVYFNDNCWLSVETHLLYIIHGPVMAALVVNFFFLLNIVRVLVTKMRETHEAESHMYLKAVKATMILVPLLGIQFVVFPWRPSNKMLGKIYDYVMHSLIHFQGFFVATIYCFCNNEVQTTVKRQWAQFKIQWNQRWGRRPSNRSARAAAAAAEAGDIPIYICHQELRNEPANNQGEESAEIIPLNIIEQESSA
Protocol: (§1) The functional activities of lipidated pramlintide analogue peptides, such as cAMP production, were tested in 1321N1 cell line with stable recombinant expression of human calcitonin receptor (hCTR) or human amylin receptor (calcitonin receptor co-expressed with receptor activity modifying protein, RAMP3) (hAMYR3) or HEK cells with stable recombinant expression of rat calcitonin receptor (rat CTR) or rat amylin receptor (calcitonin receptor co-expressed with receptor activity modifying protein, RAMP3) (Rat AMYR3).
(§2) Cryopreserved cell stock was thawed rapidly in a water-bath, suspended in assay buffer (0.1% BSA (Sigma #A3059) in HBSS (Sigma #H8264) with 25 mM HEPES, pH 7.4 and containing 0.5 mM IB MX (Sigma #17018)) and spun at 240×g for 5 minutes. Cells were re-suspended in assay buffer at a batch-dependent optimized concentration (e.g. hCTR cells at 0.125×10^5 cells/mL, hAMYR3 cells at 0.125×10^5 cells/mL, rat CTR cells at 1×10^5 cells/mL, rat AMYR3 at 2×10^5 cells/mL).
(§3) The test peptide stock was prepared in DMSO and diluted in assay buffer to reach stated concentrations and transferred in duplicates into a 384-black shallow well microtitre assay plate (Corning #3676). Cells were added to the assay plate, incubated at room temperature for 30 minutes and the CAMP level measured using CAMP dynamic 2 HTRF kit (Cisbio, Cat #62AM4PEJ), following the two step protocol as per manufacturer's recommendations. The plates were read on an Envision (Perkin Elmer) using excitation wavelength of 320 nm and emission wavelengths of 620 nm & 665 nm.
(§4) Data was transformed to % Delta F as described in the manufacturer's guidelines and analyzed as percent activation of maximal amylin or calcitonin effect by 4-parameter logistic fit to determine EC50 values. The selectivity of a peptide to hAMYR vs hCTR is defined as a ratio of EC50 values at the two receptors.

[2] = target: T2, human amylin receptor (calcitonin receptor co-expressed with receptor activity modifying protein, RAMP3) (hAMYR3) (Homo sapiens, UniProt O60896+P30988); assay: cAMP production in 1321N1 cells with stable recombinant expression of human amylin receptor (hAMYR3); assay type: cell-based; conditions: for EC50: cAMP production, 1321N1 cells expressing human amylin3 receptor
T2 construct: expressed in transfected cells
T2 sequence (P30988 25-474): T1 sequence (P30988 25-474)
T2 sequence (O60896 24-148 partner): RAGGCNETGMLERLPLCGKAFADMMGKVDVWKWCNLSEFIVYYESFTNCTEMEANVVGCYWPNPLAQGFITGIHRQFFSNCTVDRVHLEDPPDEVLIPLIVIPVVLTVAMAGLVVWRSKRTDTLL
Protocol: as §1, §2, §3, §4

[3] = cited from earlier work

Row | EC50 [1] | Ratio (selectivity hAMYR vs hCTR, ratio of EC50 values at the two receptors) ([2]; EC50 hCTR / EC50 hAMYR3) | EC50 [2] | Compound | terminal half-life of amylin in rats [3]
1 | 1.39 nM | 7 | 0.211 nM | CC[C@H](C)[C@H](NC(=O)[C@@H]1CCCN1C(=O)CNC(=O)[C@H](Cc1ccccc1)NC(=O)[C@H](CC(N)=O)NC(=O)C(C)(C)NC(=O)[C@H](CO)NC(=O)[C@H](CO)NC(=O)[C@H](Cc1c[nH]cn1)NC(=O)[C@@H](NC(=O)[C@H](CC(C)C)NC(=O)[C@H](Cc1ccccc1)NC(=O)[C@H](CC(N)=O)NC(=O)[C@H](C)NC(=O)[C@H](CC(C)C)NC(=O)[C@H](CCCNC(=N)N)NC(=O)[C@H](CCC(N)=O)NC(=O)[C@@H](NC(=O)[C@H](C)NC(=O)[C@@H]1CSSC[C@H](NC(=O)[C@H](CCCCN)NC(=O)CC[C@H](NC(=O)CCCCCCCCCCCCCCCCC(=O)O)C(=O)O)C(=O)N[C@@H](CC(N)=O)C(=O)N[C@@H]([C@@H](C)O)C(=O)N[C@@H](C)C(=O)N[C@@H]([C@@H](C)O)C(=O)N1)[C@@H](C)O)C(C)C)C(=O)N[C@@H](CC(C)C)C(=O)N1CCC[C@H]1C(=O)N1CCC[C@H]1C(=O)N[C@H](C(=O)N[C@@H](CCCNC(=N)N)C(=O)N[C@H](C(=O)NCC(=O)N[C@@H](CO)C(=O)N[C@@H](CC(N)=O)C(=O)N[C@H](C(=O)N[C@@H](Cc1ccc(O)cc1)C(N)=O)[C@@H](C)O)C(C)C)[C@@H](C)O [Peptide 71, C18diacid-γE-K[CNTATC]ATQRLANFLVHSS(Aib)NFGPILPPTRVGSNTY-amide] ({C18 diacid-γGlu}-KCNTATCATQRLANFLVHSS[Aib]NFGPILPPTRVGSNTY-NH2; disulfide 2-7) | –
2 | – | – | – | amylin (KCNTATCATQRLANFLVHSSNNFGAILSSTNVGSNTY; not fully specified (C-terminus, bridges); cysteine pairing not given here; UniProt P10997 34-70, looked up) [native peptide hormone of which pramlintide is a synthetic analogue] | around 13 minutes
3 | 2.02 nM | – | – | CC[C@H](C)[C@H](NC(=O)[C@@H]1CCCN1C(=O)CNC(=O)[C@](C)(Cc1ccccc1)NC(=O)[C@H](CC(N)=O)NC(=O)[C@H](CC(N)=O)NC(=O)[C@H](CO)NC(=O)[C@H](CO)NC(=O)[C@H](Cc1c[nH]cn1)NC(=O)[C@H](CCCNC(=N)N)NC(=O)[C@H](CC(C)C)NC(=O)[C@H](Cc1ccccc1)NC(=O)[C@H](CC(N)=O)NC(=O)[C@H](C)NC(=O)[C@H](CC(C)C)NC(=O)[C@H](CCCNC(=N)N)NC(=O)[C@H](CCC(N)=O)NC(=O)[C@@H](NC(=O)[C@H](C)NC(=O)[C@@H]1CSSC[C@H](NC(=O)[C@@H](N)CCCCNC(=O)CC[C@H](NC(=O)CCCCCCCCCCCCCCCCC(=O)O)C(=O)O)C(=O)N[C@@H](CC(N)=O)C(=O)N[C@@H]([C@@H](C)O)C(=O)N[C@@H](C)C(=O)N[C@@H]([C@@H](C)O)C(=O)N1)[C@@H](C)O)C(=O)N[C@@H](CC(C)C)C(=O)N1CCC[C@H]1C(=O)N1CCC[C@H]1C(=O)N[C@H](C(=O)N[C@@H](CCC(=O)O)C(=O)N[C@H](C(=O)NCC(=O)N[C@@H](CO)C(=O)N[C@@H](CC(N)=O)C(=O)N[C@H](C(=O)N[C@@H](Cc1ccc(O)cc1)C(N)=O)[C@@H](C)O)C(C)C)[C@@H](C)O [Peptide 16, K(γE-C18diacid)[CNTATC]ATQRLANFLRHSSNN(αMePhe)GPILPPTEVGSNTY-amide] (H-K([γGlu-C18 diacid])CNTATCATQRLANFLRHSSNN[αMeF]GPILPPTEVGSNTY-NH2; disulfide 2-7; N-terminus assumed) | –
4 | 10.7 nM | – | 1.77 nM | CC[C@H](C)[C@H](NC(=O)[C@H](C)NC(=O)[C@@H]1CCCN1C(=O)[C@H](Cc1ccccc1)NC(=O)[C@H](CC(N)=O)NC(=O)[C@@H]1CCCN1C(=O)[C@H](CO)NC(=O)[C@H](CO)NC(=O)[C@H](Cc1c[nH]cn1)NC(=O)[C@@H](NC(=O)[C@H](CC(C)C)NC(=O)[C@H](Cc1c[nH]c2ccccc12)NC(=O)[C@H](CC(N)=O)NC(=O)[C@H](C)NC(=O)[C@H](CC(C)C)NC(=O)[C@H](CCCNC(=N)N)NC(=O)[C@H](CCC(N)=O)NC(=O)[C@@H](NC(=O)[C@H](C)NC(=O)[C@@H]1CSSC[C@H](NC(=O)[C@@H](N)CCCCNC(=O)CC[C@H](NC(=O)CC[C@H](NC(=O)CCCCCCCCCCCCCCCCCCC(=O)O)C(=O)O)C(=O)O)C(=O)N[C@@H](CC(N)=O)C(=O)N[C@@H](C)C(=O)N[C@@H](C)C(=O)N[C@@H]([C@@H](C)O)C(=O)N1)[C@@H](C)O)C(C)C)C(=O)N[C@@H](CC(C)C)C(=O)N[C@@H](CO)C(=O)N1CCC[C@H]1C(=O)N[C@H](C(=O)N[C@@H](CC(N)=O)C(=O)N[C@H](C(=O)NCC(=O)N[C@@H](CO)C(=O)N[C@@H](CC(N)=O)C(=O)N[C@H](C(=O)N[C@@H](Cc1ccc(O)cc1)C(N)=O)[C@@H](C)O)C(C)C)[C@@H](C)O [Peptide 120] (H-K([γGlu-γGlu-C20 diacid])CNAATCATQRLANWLVHSSPNFPAILSPTNVGSNTY-NH2; disulfide 2-7; N-terminus assumed) | –
